How the values were obtained:
[1] = biological target: T1, neutrophil collagenase (MMP-8) (Homo sapiens, UniProt P22894); assay: Enzymatic activity of the catalytic domain of neutrophil collagenase (fluorogenic substrate); type: biochemical; settings: pH=6.5, 15 min preincubation, fluorescence 328 nm (ex)/393 nm (em), read-out: Neutr. collagenase IC50
T1 construct: enzymatic activity of the catalytic domains of human stromelysin and of neutrophil collagenase; made in house
Protocol: (§1) Preparation and determination of the enzymatic activity of the catalytic domains of human stromelysin and of neutrophil collagenase:
(§2) The enzymes stromelysin (MMP-3) and neutrophil collagenase (MMP-8) were prepared according to Ye et al. (Biochemistry; 31 (1992) pages 11231–11235). To measure the enzyme activity or the enzyme inhibitor action, 70 μl of buffer solution and 10 μl of enzyme solution are incubated for 15 min with 10 μl of a 10% strength (v/v) aqueous dimethyl sulfoxide solution, which optionally contains the enzyme inhibitor. After addition of 10 μl of a 10% strength (v/v) aqueous dimethyl sulfoxide solution which contains 1 mmol/L of the substrate, the enzyme reaction is monitored by fluorescence spectroscopy (328 nm (ex)/393 nm(em)). The enzyme activity is shown as the extinction increase/min. The IC50 values listed in Table 2 are determined as those inhibitor concentrations which in each case led to a 50% inhibition of the enzyme.
(§3) The buffer solution contains 0.05% Brij (Sigma, Deisenhofen, Germany) and also 0.1 mol/L Tris/HCl, 0.1 mol/L NaCl, 0.01 mol/L CaCl2 and 0.1 mol/L piperazine-N,N′-bis[2-ethanesulfonic acid] (pH=6.5). The enzyme solution contains 5 μg/ml of one of the enzyme domains prepared according to Ye et al. The substrate solution contains 1 mmol/L of the fluorogenic substrate (7-methoxycoumarin-4-yl)acetyl-Pro-Leu-Gly-Leu-3-(2′,4′-dinitrophenyl)-L-2,3-diaminopropionyl-Ala-Arg-NH2 (Bachem, Heidelberg, Germany).

[2] = biological target: T2, stromelysin (MMP-3) (Homo sapiens, UniProt P08254); assay: Enzymatic activity of the catalytic domain of human stromelysin (fluorogenic substrate); type: biochemical; settings: pH=6.5, 15 min preincubation, fluorescence 328 nm (ex)/393 nm (em)
T2 construct: enzymatic activity of the catalytic domains of human stromelysin and of neutrophil collagenase; made in house
T2 sequence (P08254 100-272 limits assumed): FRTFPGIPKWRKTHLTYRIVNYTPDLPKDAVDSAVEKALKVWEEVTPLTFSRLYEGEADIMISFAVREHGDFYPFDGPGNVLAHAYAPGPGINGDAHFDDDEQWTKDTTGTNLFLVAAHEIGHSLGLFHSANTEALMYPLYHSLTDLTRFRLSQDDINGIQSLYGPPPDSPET
Protocol: as §1, §2, §3

T1 sequence (P22894 100-262 limits assumed): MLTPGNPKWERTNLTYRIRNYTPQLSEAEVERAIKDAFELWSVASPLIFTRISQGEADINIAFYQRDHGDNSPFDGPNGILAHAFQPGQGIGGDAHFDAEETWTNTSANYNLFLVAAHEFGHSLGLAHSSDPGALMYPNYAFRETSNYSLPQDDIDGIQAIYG

| SMILES | melting point | IC50 [1] | IC50 [2] |
| --- | --- | --- | --- |
| CN(C)c1ccc(-c2ccc(S(=O)(=O)N[C@@H](CCC(N)=O)C(=O)O)cc2)cc1 [Example 49] | 213 to 215 °C |  |  |
| CC(C)C[C@H](NC(=O)CC[C@H](NS(=O)(=O)c1ccc(-c2ccccc2)cc1)C(=O)O)C(=O)O [Example 56] | 93 to 95 °C | 5 nM | 30 nM |
| C[C@H](O)[C@H](NS(=O)(=O)c1ccc(Oc2ccccc2)cc1)C(=O)O [Example 9] | 96 to 98 °C | 20 nM | 300 nM |
| O=C(O)[C@@H](CCc1ccccc1)NS(=O)(=O)c1ccc(-c2ccc(Cl)cc2)cc1 [Example 25] |  | 40 nM | 200 nM |
| O=C(O)[C@@H]1CN1S(=O)(=O)c1ccc(-c2ccccc2)cc1 (stereo partly shown) [Example 64] | 138 to 139 °C |  |  |
| CNC(=O)c1ccc(NC(=O)CC[C@H](NS(=O)(=O)c2ccc(-c3ccccc3)cc2)C(=O)O)cc1 [Example 83] | 250 to 250.5 °C | 20 nM | 1000 nM |
| O=C(O)[C@@H](CCO)NS(=O)(=O)c1ccc(Oc2ccccc2)cc1 (racemic) [Example 1, N-(Phenoxybenzenesulfonyl) homoserine] | 134 °C | 10 nM | 400 nM |
| O=C(O)C(CSC1=NCCS1)NS(=O)(=O)c1ccc(-c2ccc(Cl)cc2)cc1 (racemic) [Example 19] |  | 50 nM | 500 nM |
| O=C(O)CC[C@H](NS(=O)(=O)c1ccc(-c2ccccc2)cc1)C(=O)O [Example 60] | 145 to 146 °C | 20 nM | 600 nM |
| O=C(O)C(NS(=O)(=O)c1ccc(-c2ccc(Cl)cc2)cc1)c1ccsc1 (racemic) [Example 26] |  | 40 nM | 400 nM |
| O=C(CC[C@H](NS(=O)(=O)c1ccc(-c2ccccc2)cc1)C(=O)O)Nc1ccccc1 [Example 79] | 234.5 to 235.5 °C | 4 nM | 20 nM |
| O=C(O)[C@H](Cc1c[nH]cn1)NS(=O)(=O)c1ccc(Oc2ccccc2)cc1 [Example 30] | 183 to 185 °C |  |  |
| O=C(O)[C@H](Cc1cn(S(=O)(=O)c2ccc(Oc3ccccc3)cc2)cn1)NS(=O)(=O)c1ccc(Oc2ccccc2)cc1 [Example 31] | 120 to 122 °C | 50 nM | 1000 nM |
| O=C(O)CC[C@H](NS(=O)(=O)c1ccc(-c2ccc(N3CCCC3)cc2)cc1)C(=O)O [Example 77] | > 220 °C (dec.) | 4 nM | 4 nM |
| COc1ccc(NC(=O)CC[C@H](NS(=O)(=O)c2ccc(-c3ccccc3)cc2)C(=O)O)cc1 [Example 89] | 219 to 221 °C | 20 nM | 300 nM |
| O=C(O)[C@@H](Cc1c[nH]c2ccccc12)NS(=O)(=O)c1ccc(-c2ccc(N3CCCC3)cc2)cc1 [Example 71] | > 145 °C (dec.) | 2 nM | 10 nM |
| O=C(O)C[C@@H](NS(=O)(=O)c1ccc(-c2ccccc2)cc1)C(=O)O [Example 38] | > 55 °C |  |  |
| O=C(O)CCN(CC(=O)O)S(=O)(=O)c1ccc(Oc2ccc(Cl)cc2)cc1 [Example 45] | 169 to 171 °C |  |  |
| O=C(O)[C@H](CCC(=O)N1CCc2ccccc21)NS(=O)(=O)c1ccc(-c2ccc(N3CCCC3)cc2)cc1 [Example 101] | > 130 °C (dec.) |  |  |
| O=C(O)C(CCc1c[nH]c2ccccc12)NS(=O)(=O)c1ccc(-c2ccc(Cl)cc2)cc1 (racemic) [Example 105] |  | 10 nM | 30 nM |
| O=C(O)C1CCCCN1S(=O)(=O)c1ccc(-n2nccn2)cc1 (racemic) [Example 63] | 195 to 196 °C | 600 nM | 3000 nM |
| O=C(O)[C@@H](CO)NS(=O)(=O)c1ccc(-c2ccc(Cl)cc2)cc1 [Example 7] |  | 40 nM | 200 nM |
| CSCC[C@@H](NS(=O)(=O)c1ccc(-c2ccccn2)s1)C(=O)O [Example 12] | 115 to 125 °C |  |  |
| O=C(O)[C@H](CSCc1ccccc1)NS(=O)(=O)c1ccc(-c2ccc(Cl)cc2)cc1 [Example 32] |  | 40 nM | 200 nM |
| O=C(CCC(NS(=O)(=O)c1ccc(-c2ccccc2)cc1)C(=O)O)Nc1ccccc1 (racemic) [Example 47] | 227 to 230 °C |  |  |
| O=C(O)C(NS(=O)(=O)c1ccc(-c2ccc(Cl)cc2)cc1)C(O)c1cccs1 (stereo not shown) [Example 36] |  | 10 nM | 200 nM |
| O=C(O)C(Cc1cccnc1)NS(=O)(=O)c1ccc(-c2ccc(Cl)cc2)cc1 (racemic) [Example 88] |  | 7 nM | 100 nM |

| SMILES | melting point | IC50 [1] | IC50 [2] |
| --- | --- | --- | --- |
| O=C(CC[C@H](NS(=O)(=O)c1ccc(-c2ccccc2)cc1)C(=O)O)Nc1ccc(C(=O)O)cc1 [Example 50] | 266 °C |  |  |
| NC(=O)C[C@@H](NS(=O)(=O)c1ccc(-c2ccc(Cl)cc2)cc1)C(=O)O [Example 44] |  | 10 nM | 90 nM |
| C=CC(NS(=O)(=O)c1ccc(-c2ccc(Cl)cc2)cc1)C(=O)O (racemic) [Example 6] |  | 20 nM | 200 nM |
| O=C(C[C@H](NS(=O)(=O)c1ccc(-c2ccc(Cl)cc2)cc1)C(=O)O)OCc1ccccc1 [Example 41] |  | 30 nM | 200 nM |
| CN(C)c1ccc(-c2ccc(S(=O)(=O)N[C@H](CCC(=O)O)C(=O)O)cc2)cc1 [Example 46] | 165 °C |  |  |
| O=C(O)C[C@@H](C(=O)O)N(Cc1ccncc1)S(=O)(=O)c1ccc(-c2ccccc2)cc1 [Example 43] | 105 °C |  |  |
| CSCC[C@@H](NS(=O)(=O)c1ccc(-c2ccc(Cl)cc2)cc1)C(=O)O [Example 10] |  | 10 nM | 90 nM |
| O=C(O)[C@@H](Cc1c[nH]c2ccccc12)NS(=O)(=O)c1ccc(-c2ccc(Cl)cc2)cc1 [Example 29, (R)-N-(4-Chlorobiphenylsulfonyl)tryptophan] |  | 9 nM | 80 nM |
| O=C(O)C(NS(=O)(=O)c1ccc(-c2ccc(Cl)cc2)cc1)C(O)c1ccccc1 (stereo not shown) [Example 34] |  | 20 nM | 200 nM |
| CSCC[C@@H](NS(=O)(=O)c1ccc(-c2ccon2)s1)C(=O)O [Example 13] | 70 to 76 °C |  |  |
| NNC(=O)CC[C@H](NS(=O)(=O)c1ccc(-c2ccccc2)cc1)C(=O)O [Example 59] | 205 to 207 °C |  |  |
| O=C(O)C[C@H](NS(=O)(=O)c1ccc(-c2ccccc2)cc1)C(=O)O [Example 37] | 186.7 °C |  |  |
| NC(=O)CC[C@@H](NS(=O)(=O)c1ccc(-c2ccc(Cl)cc2)cc1)C(=O)O [Example 51] |  | 5 nM | 50 nM |
| CS(=O)(=O)CC[C@@H](NS(=O)(=O)c1ccc(-c2ccc(Cl)cc2)cc1)C(=O)O [Example 16] |  | 7 nM | 70 nM |
| O=C(O)[C@H](CCC(=O)N1CCc2ccccc21)NS(=O)(=O)c1ccc(-c2ccccc2)cc1 [Example 100] | 182.5 to 183.5 °C | 20 nM |  |
| CS(=O)(=O)CC[C@H](NS(=O)(=O)c1ccc(-c2ccc(Cl)cc2)cc1)C(=O)O [Example 17] |  | 20 nM | 100 nM |
| CN(C)c1ccc(-c2ccc(S(=O)(=O)NC(CCC(=O)Nc3ccccc3)C(=O)O)cc2)cc1 (racemic) [Example 48] | 212 to 214 °C |  |  |
| C[S+]([O-])CC[C@@H](NS(=O)(=O)c1ccc(-c2ccc(Cl)cc2)cc1)C(=O)O (stereo partly shown) [Example 15] |  | 10 nM | 100 nM |
| COc1ccc(CC(NS(=O)(=O)c2ccc(-c3ccc(N(C)C)cc3)cc2)C(=O)O)cc1OC (racemic) [Example 24] | 230 °C |  |  |
| O=C(O)[C@H]1C[C@@H](O)CN1S(=O)(=O)c1ccc(-c2ccc(Cl)cc2)cc1 [Example 2, (2R)-1-(4-Chlorobiphenylsulfonyl)-4-cis-hydroxyproline] |  | 90 nM | 100 nM |
| O=C(c1ccccc1)c1ccc(C[C@@H](NS(=O)(=O)c2ccc(-c3ccc(Cl)cc3)cc2)C(=O)O)cc1 [Example 23] |  | 600 nM | 1000 nM |
| O=C(O)C[C@H](NS(=O)(=O)c1ccc(-c2ccc(Cl)cc2)cc1)C(=O)OCc1ccccc1 [Example 42] |  | 30 nM | 400 nM |
| CN(CC(=O)O)S(=O)(=O)c1ccc(Oc2ccc(Cl)cc2)cc1 [Example 4] | 128 to 130 °C |  |  |
| O=C(O)[C@@H](Cc1csc2ccccc12)NS(=O)(=O)c1ccc(-c2ccc(Cl)cc2)cc1 [Example 28] |  | 60 nM | 300 nM |
| NC(=O)CC[C@@H](NS(=O)(=O)c1ccc(-c2ccccc2)cc1)C(=O)O [Example 72] |  | 20 nM | 600 nM |
| CP(=O)(O)CC[C@H](NS(=O)(=O)c1ccc(-c2ccc(Cl)cc2)cc1)C(=O)O [Example 104] |  | 5 nM | 40 nM |
